A value given as a limit tells only on which side of the number the result lay.

Two substances from publication PMC7515829, “HKDC1 C-terminal based peptides inhibit extranodal natural killer/T-cell lymphoma by modulation of mitochondrial function and EBV suppression” (Leukemia, 2020) can be followed below.

Assay [1] relates to EBV. In words: EBV viral genomes/cell by qPCR in tumor tissue. The assay is classed as in vivo, mouse. The note with it: SNK6 xenograft, nude mice; intratumoral 50 µM peptide every 2 days from day ~18; tissue day 50; qPCR vs CTL; n = 4. As to the method: Detection of EBV copy number. Genomic DNA was extracted from treated SNK-6 cells or SNK-6 tumor tissue in mice using a QIAamp DNA Mini Kit (Qiagen). The EBV DNA copy number was measured through qPCR using 50ng of total DNA with EBV BMRF1 primers (see Table 1), and the results were normalized using cellular β-actin (primers see Table 1) as an internal control (13, 14). The Namalwa cell line, which contains 2 EBV viral genome copies, was used as a standard to prepare calibration curves for both EBV BMRF1 and β-actin genes, and the EBV viral load was presented as the number of viral genomes per cell (15, 16).
A general note: Real-time PCR tracks product formation cycle by cycle.

The subject of assay [2] is Namalwa. Description: Cell death IC50 by PI staining/FACS. The assay is classed as cell-based. The note with it: Human Burkitt’s lymphoma/EBV(+), 0.1–15 µM, 6 h (suspension) or 12 h (adherent cells), mean ± SEM, read-out: Peptide IC50 (µM), cell death, Namalwa. As for the experimental part:
(§1) Measurement of apoptosis and cell death. Apoptosis was evaluated by TUNEL assay using the In Situ Cell Death Detection Kit™ (Roche). Cells were fixed in 4% paraformaldehyde and labeled with TUNEL reagents. Stained cells were photographed by a fluorescence microscope (11). For cell death analysis, the propidium iodide (PI) staining was performed by addition of 6.25 µg/ml of PI to the cells, and cell death was immediately evaluated by FACS analysis (3).

Assay [3] deals with HANK1. In words: Cell death IC50 by PI staining/FACS. The note with it: Human natural killer/T-cell lymphoma/EBV(+), 0.1–15 µM, 6 h (suspension) or 12 h (adherent cells), mean ± SEM, read-out: Peptide IC50 (µM), cell death, HANK1. The assay is classed as cell-based. As for the experimental part:
as §1

The test system of assay [4] is SW620. Description: Cell death IC50 by PI staining/FACS. The note with it: Human colorectal adenocarcinoma/EBV(−), 0.1–15 µM, 6 h (suspension) or 12 h (adherent cells), mean ± SEM, read-out: Peptide IC50 (µM), cell death, SW620. The assay is classed as cell-based. As to the method: as §1
Assay [5] deals with SNT8. In words: Cell death IC50 by PI staining/FACS. The assay is classed as cell-based. The note with it: Human natural killer/T-cell lymphoma/EBV(+), 0.1–15 µM, 6 h (suspension) or 12 h (adherent cells), mean ± SEM, read-out: Peptide IC50 (µM), cell death, SNT8. As for the experimental part: as §1
Assay [6] deals with U266B1. In words: Cell death IC50 by PI staining/FACS. The assay is classed as cell-based. The note with it: Human B lymphoblast/EBV(−), 0.1–15 µM, 6 h (suspension) or 12 h (adherent cells), mean ± SEM, read-out: Peptide IC50 (µM), cell death, U266B1. As to the method: as §1
Assay [7] relates to HL-60. In words: Cell death IC50 by PI staining/FACS. The assay is classed as cell-based. The note with it: Human acute promyelocytic leukemia/EBV(−), 0.1–15 µM, 6 h (suspension) or 12 h (adherent cells), mean ± SEM, read-out: Peptide IC50 (µM), cell death, HL-60. As to the method: as §1
For assay [8], the system named is Healthy MNCs. Description: Cell death IC50 by PI staining/FACS. The assay is classed as cell-based. The note with it: Healthy human mononuclear cells/EBV(−), 0.1–15 µM, 6 h (suspension) or 12 h (adherent cells), mean ± SEM, read-out: Peptide IC50 (µM), cell death, Healthy MNCs. As for the experimental part: as §1
Assay [9] concerns HMECs. In words: Cell death IC50 by PI staining/FACS. The note with it: Human mammary epithelial cells/EBV(−), 0.1–15 µM, 6 h (suspension) or 12 h (adherent cells), mean ± SEM, read-out: Peptide IC50 (µM), cell death, HMECs. The assay is classed as cell-based. As for the experimental part: as §1
In assay [10] the test system is MCF7. In words: Cell death IC50 by PI staining/FACS. The assay is classed as cell-based. The note with it: Human breast adenocarcinoma/EBV(−), 0.1–15 µM, 6 h (suspension) or 12 h (adherent cells), mean ± SEM, read-out: Peptide IC50 (µM), cell death, MCF7. As for the experimental part: as §1
The test system of assay [11] is HepG2. In words: Cell death IC50 by PI staining/FACS. The assay is classed as cell-based. The note with it: Human hepatocellular carcinoma/EBV(−), 0.1–15 µM, 6 h (suspension) or 12 h (adherent cells), mean ± SEM, read-out: Peptide IC50 (µM), cell death, HepG2. As to the method:
as §1

For assay [12], the system named is THP1. In words: Cell death IC50 by PI staining/FACS. The assay is classed as cell-based. The note with it: Human monocytic leukemia/EBV(−), 0.1–15 µM, 6 h (suspension) or 12 h (adherent cells), mean ± SEM, read-out: Peptide IC50 (µM), cell death, THP1. As for the experimental part:
as §1

The subject of assay [13] is SW480. In words: Cell death IC50 by PI staining/FACS. The assay is classed as cell-based. The note with it: Human colorectal adenocarcinoma/EBV(−), 0.1–15 µM, 6 h (suspension) or 12 h (adherent cells), mean ± SEM, read-out: Peptide IC50 (µM), cell death, SW480. As to the method:
as §1

The subject of assay [14] is NK92. Description: Cell death IC50 by PI staining/FACS. The assay is classed as cell-based. The note with it: Human natural killer non-Hodgkin’s lymphoma/EBV(−), 0.1–15 µM, 6 h (suspension) or 12 h (adherent cells), mean ± SEM, read-out: Peptide IC50 (µM), cell death, NK92. As for the experimental part:
as §1

Assay [15] relates to Hela. In words: Cell death IC50 by PI staining/FACS. The assay is classed as cell-based. The note with it: Human cervix adenocarcinoma/EBV(−), 0.1–15 µM, 6 h (suspension) or 12 h (adherent cells), mean ± SEM, read-out: Peptide IC50 (µM), cell death, Hela. As to the method:
as §1

For assay [16], the system named is MM.1R. Description: Cell death IC50 by PI staining/FACS. The assay is classed as cell-based. The note with it: Human B lymphoblast/EBV(−), 0.1–15 µM, 6 h (suspension) or 12 h (adherent cells), mean ± SEM, read-out: Peptide IC50 (µM), cell death, MM.1R. As for the experimental part:
as §1

For assay [17], the system named is RPMI 8226. Description: Cell death IC50 by PI staining/FACS. The assay is classed as cell-based. The note with it: Human B lymphoblast/EBV(−), 0.1–15 µM, 6 h (suspension) or 12 h (adherent cells), mean ± SEM, read-out: Peptide IC50 (µM), cell death, RPMI 8226. As to the method: as §1
Assay [18] relates to SNK6 cells. In words: Colony formation in soft agar. The note with it: 0.5 µM peptide, 6 h, vs CTL, n = 5 (Fig. 5e). The assay is classed as cell-based, human. As for the experimental part: Colony formation in soft agar. This assay is a method for evaluating the ability of individual cell lines to grow in an anchorage-independent manner. Cells were resuspended in DMEM containing 5% FBS with 0.3% agarose and layered on top of 0.5% agarose in DMEM on 60-mm plates. 1000 cells were seeded in 60mm soft agar dishes for 30 days. The dishes were examined twice per week, and colonies that grew beyond […] in diameter were scored as positive. Each experiment was done in quadruplicate (8).

What is called IC50 is the concentration that gives 50% inhibition. As to HAIYPRH-LQQAQKEN [Tf-D-HKC8], in assay [1], the “EBV genome replication in tumor” value worked out at 25%. In addition, the IC50 in [2] worked out at 0.7 ± 0.4 µM; in assay [3], 0.7 ± 0.4 µM; in assay [4], 10.2 ± 0.7 µM; in assay [5] it was 0.6 ± 0.3 µM; in assay [6] it was 1.4 ± 0.3 µM; in [7], 1.7 ± 0.4 µM. Moreover, the IC50 in assay [8] was > 15 µM; in assay [9], > 15 µM; in [10], > 15 µM; in assay [11], > 15 µM; in assay [12], 1.8 ± 0.6 µM; in [13], 6.7 ± 0.8 µM. Moreover, the IC50 in assay [14] was 0.9 ± 0.4 µM; in assay [15], 6.8 ± 0.9 µM; in assay [16], 1.6 ± 0.4 µM; in [17], 1.3 ± 0.6 µM. Besides, the colony formation in [18] turned out to be 28%.
For HAIYPRH-ITAVAKRLQQAQKEN [Tf-D-HKC15], the “EBV genome replication in tumor” value in assay [1] turned out to be 59%. Besides, the IC50 worked out at 0.9 ± 0.3 µM in [2]; 1.4 ± 0.6 µM in [3]; 12.5 ± 0.8 µM in [4]; 1.1 ± 0.4 µM in [5]; 2.2 ± 0.6 µM in assay [6]; 2.2 ± 0.6 µM in assay [7]. For the same substance, the IC50 is > 15 µM in assay [8]; > 15 µM in assay [9]; > 15 µM in [10]; > 15 µM in assay [11]; 2.3 ± 0.5 µM in [12]; 8.9 ± 0.9 µM in assay [13]. Moreover, the IC50 in assay [14] is 1.5 ± 0.6 µM; in assay [15] it was 9.8 ± 0.6 µM; in [16], 2.3 ± 0.7 µM; in [17] it was 1.9 ± 0.7 µM. For the same substance, in assay [18], the colony formation was 64%.
